Results from article PMC6470795 (Molecules, 2019).
Like-named read-outs stand apart in the source and are kept apart here.

Tests used:
[1] = tested on: hepatic carcinoma 97H cells; test: MTT antiproliferative assay, 97H cells; format: cell-based, human; conditions: read-out: IC50 of Against 97H cells
Source text: (§1) The cell lines, 97H (human liver cancer cell), Pc9 (human non-small cell lung cancer), HELA (human epithelial cervical cancer cell line), SJSA1 (human osteosarcoma cells), LO2 (human normal liver cells), and HLF (human embryonic lung fibroblast), used in this study were purchased from the Guangzhou ginny ou Biotechnology Co. Ltd. (Guangzhou, China). Cell lines were cultivated in Dulbecco’s Modified Eagle Medium (DMEM) containing 10% (v/v) heat-inactivated fetal bovine serum (FBS), 100 units/mL penicillin, and 100 μg/mL streptomycin.
(§2) For the cytotoxicity assay, the cells grown in the logarithmic phase were seeded into 96-well plates (5 × 10^3 cells/well) for 24 h, and then exposed to different concentrations of the test compounds for 48 h. After the attached cells had been incubated with 5 mg/mL MTT (Sigma, St. Louis, MO, USA) for another 4 h, the suspension was discarded and subsequently the dark blue crystals (formazan) were solubilized in dimethyl sulfoxide (DMSO). Then, the absorbance was measured at 570 nm using a multifunction microplate reader (Molecular Devices, Flex Station 3) (Thermo Fisher Scientific, San Jose, CA, USA), and each experiment was performed at least in triplicate.

[2] = tested on: Pc9 (human non-small cell lung cancer cells); test: MTT antiproliferative assay, Pc9 cells; format: cell-based; conditions: PC-9, 48 h, read-out: IC50 Pc9
Source text: as §1, §2

[3] = tested on: Hela (human epithelial cervical cancer cells); test: MTT antiproliferative assay, Hela cells; format: cell-based; conditions: HeLa, 48 h, read-out: IC50 Hela
Source text: as §1, §2

[4] = tested on: SJSA1 (human osteosarcoma cells); test: MTT antiproliferative assay, SJSA1 cells; format: cell-based; conditions: SJSA-1, 48 h, read-out: IC50 SJSA1
Source text: as §1, §2

[5] = tested on: LO2 (human normal liver cells); test: MTT assay, LO2 normal cells; format: cell-based; conditions: 48 h, read-out: IC50 LO2
Source text: as §1, §2

[6] = tested on: HLF (human embryonic lung fibroblast cells); test: MTT assay, HLF normal cells; format: cell-based; conditions: 48 h, read-out: IC50 HLF
Source text: as §1, §2

[7] = Homo sapiens, 97H cells, MTT, 48 h

Row | IC50 [1, 7] | melting point | Structure (SMILES) | also measured
1 | 1830 ± 26 nM | – | C[C@@H](c1cccc(-c2ncc(OCC3CCN(C)CC3)cn2)c1)n1cc(-c2cccc(C#N)c2)cnc1=O [(S)-31e] | –
2 | 206 ± 13 nM | – | CC(c1cccc(-c2ncc(SCCCN(C)C)cn2)c1)n1cc(-c2cccc(C#N)c2)cc(F)c1=O (stereo not shown) [Compound 39, 5-(3-cyanophenyl)-1-(1-(3-(5-((3-(dimethylamino)propyl)thio)pyrimidin-2-yl)phenyl)ethyl)-3-fluoropyridin-2(1H)-one] | –
3 | 216 ± 87 nM | 68.3 to 69.9 °C | CC(c1cccc(-c2ncc(OCCCN(C)C)cn2)c1)n1cc(-c2cccc(C#N)c2)cnc1=O (stereo not shown) [Compound 31c, 5-(3-cyanophenyl)-1-(1-(3-(5-(3-(dimethylamino)propoxy)pyrimidin-2-yl)phenyl)ethyl)pyrimidin-2(1H)-one] | –
4 | 9800 nM | 106.3 to 107.9 °C | CN(C)CCCSc1cnc(-c2cccc(Cn3cc(-c4cccc(C#N)c4)ncc3=O)c2)nc1 [Compound 11a, 5-(3-cyanophenyl)-1-(3-(5-((3-(dimethylamino)propyl)thio)pyrimidin-2-yl)benzyl)pyrazin-2(1H)-one] | IC50 ([1]; 97H cells, MTT, 48 h): 9810 ± 790 nM
5 | 671 ± 56 nM | – | CN(C)CCCSc1cnc(-c2cccc(Cn3cc(-c4cncnc4)cc(F)c3=O)c2)nc1 [Compound 36c, 1-(3-(5-((3-(dimethylamino)propyl)thio)pyrimidin-2-yl)benzyl)-3-fluoro-5-(pyrimidin-5-yl)pyridin-2(1H)-one] | –
6 | – | – | CN1CCC(COc2cnc(-c3cccc(Cn4nc(-c5cccc(C#N)c5)ccc4=O)c3)nc2)CC1 [Tepotinib, reference compound] | IC50 ([1]; Homo sapiens): 13 ± 8 nM; IC50 [2]: 8105 ± 12 nM; IC50 [3]: 11200 ± 320 nM; IC50 [4]: 12200 ± 350 nM; IC50 [5]: 10300 ± 460 nM; IC50 [6]: 9440 ± 150 nM
7 | 18 ± 6 nM | – | C[C@H](c1cccc(-c2ncc(OCC3CCN(C)CC3)cn2)c1)n1cc(-c2cccc(C#N)c2)cnc1=O [(R)-31e] | –
8 | 149 ± 35 nM | 116.3 to 117.9 °C | CN(C)CCCSc1cnc(-c2cccc(Cn3cc(-c4cccc(C#N)c4)cc(F)c3=O)c2)nc1 [Compound 36a, 5-(3-cyanophenyl)-1-(3-(5-((3-(dimethylamino)propyl)thio)pyrimidin-2-yl)benzyl)-3-fluoropyridin-2(1H)-one] | –
9 | 149 ± 12 nM | – | CC(c1cccc(-c2ncc(SCCCN(C)C)cn2)c1)n1cc(-c2cccc(C#N)c2)cnc1=O (stereo not shown) [Compound 31b, 5-(3-cyanophenyl)-1-(1-(3-(5-((3-(dimethylamino)propyl)thio)pyrimidin-2-yl)phenyl)ethyl)pyrimidin-2(1H)-one] | –
10 | 3810 ± 45 nM | 128.3 to 129.9 °C | CN(C)CCCSc1cnc(-c2cccc(Cn3cc(-c4cncc(F)c4)cc(F)c3=O)c2)nc1 [Compound 36b, 1-(3-(5-((3-(dimethylamino)propyl)thio)pyrimidin-2-yl)benzyl)-5,5′-difluoro-[3,3′-bipyridin]-6(1H)-one] | –
11 | 186 ± 7 nM | – | CC(c1cccc(-c2ncc(SCCN(C)C)cn2)c1)n1cc(-c2cccc(C#N)c2)cnc1=O (stereo not shown) [Compound 31a, 5-(3-cyanophenyl)-1-(1-(3-(5-((2-(dimethylamino)ethyl)thio)pyrimidin-2-yl)phenyl)ethyl)pyrimidin-2(1H)-one] | –
12 | 196 ± 56 nM | 53.3 to 55 °C | CC(c1cccc(-c2ncc(OCCN(C)C)cn2)c1)n1cc(-c2cccc(C#N)c2)cnc1=O (stereo not shown) [Compound 31d, 5-(3-cyanophenyl)-1-(1-(3-(5-(2-(dimethylamino)ethoxy)pyrimidin-2-yl)phenyl)ethyl)pyrimidin-2(1H)-one] | –
13 | 360 to 550 nM | – | CN(C)CCCSc1cnc(-c2cccc(Cn3cc(-c4cccc(C#N)c4)cnc3=O)c2)nc1 [Compound 18, 5-(3-cyanophenyl)-1-(3-(5-((3-(dimethylamino)propyl)thio)pyrimidin-2-yl)benzyl)pyrimidin-2(1H)-one] | IC50 ([1]; 97H cells, MTT, 48 h): 443 ± 4 nM
14 | 559 ± 18 nM | – | CN(C)CCCOc1cnc(-c2cccc(Cn3cc(-c4cccc(C#N)c4)cnc3=O)c2)nc1 [Compound 22, 5-(3-cyanophenyl)-1-(3-(5-(3-(dimethylamino)propoxy)pyrimidin-2-yl)benzyl)pyrimidin-2(1H)-one] | –
15 | 332 ± 44 nM | 86.9 to 88.6 °C | CC(c1cccc(-c2ncc(OCC3CCN(C)CC3)cn2)c1)n1cc(-c2cc(F)cc(F)c2)cnc1=O (stereo not shown) [Compound 31g, 5-(3,5-difluorophenyl)-1-(1-(3-(5-((1-methylpiperidin-4-yl)methoxy)pyrimidin-2-yl)phenyl)ethyl)pyrimidin-2(1H)-one] | –
16 | 360 to 550 nM | 116.7 to 118.2 °C | CN1CCC(COc2cnc(-c3cccc(Cn4cc(-c5cccc(C#N)c5)cnc4=O)c3)nc2)CC1 [Compound 25, 5-(3-cyanophenyl)-1-(3-(5-((1-methylpiperidin-4-yl)methoxy)pyrimidin-2-yl)benzyl)pyrimidin-2(1H)-one] | IC50 ([1]; 97H cells, MTT, 48 h): 361 ± 12 nM
17 | 248 ± 34 nM | – | CC(c1cccc(-c2ncc(OCCN3CCOCC3)cn2)c1)n1cc(-c2cccc(C#N)c2)cnc1=O (stereo not shown) [Compound 31f, 5-(3-cyanophenyl)-1-(1-(3-(5-(2-morpholinoethoxy)pyrimidin-2-yl)phenyl)ethyl)pyrimidin-2(1H)-one] | –
18 | 9100 ± 670 nM | 143.7 to 145.2 °C | CN(C)CCCSc1cnc(-c2cccc(Cn3cc(-c4cc(F)cc(F)c4)ncc3=O)c2)nc1 [Compound 11b, 5-(3,5-difluorophenyl)-1-(3-(5-((3-(dimethylamino)propyl)thio)pyrimidin-2-yl)benzyl)pyrazin-2(1H)-one] | –
